“Also recorded” adds a separate entry of the source.
Experiments:
pancreatic alpha-cells = test: Islet alpha-cell (glucagon-positive) area in STZ-treated mice, immunohistochemistry; assay type: in vivo, mouse (male ICR); conditions: gavage daily; for Alpha-cell area / proliferation: peptide II 400 mg/kg (n = 7) or sitagliptin 4 mg/kg (n = 6), day 57, vs STZ control
Method: (§1) Male ICR mice at the age of four weeks were obtained from the Laboratory Animal Center of Zhejiang University (Hangzhou, China) and housed under a 12 h light/dark cycle with free access to food and water. The animal protocol was approved by the Committee on the Ethics of Animal Experiments of Zhejiang University (Permit Number: SYXK 2018-0001, 3 January 2018), and all experiments were performed in accordance with Zhejiang University Laboratory Animal Center Guidelines and the Regulations for Laboratory Animals Care and Usage. The mice were divided into four groups: non-STZ, STZ, STZ plus sitagliptin, and STZ plus peptide II. The mice were injected with STZ (50 mg/kg) dissolved into sodium citrate buffer (pH 4.5) for three successive days to induce hyperglycemia. Every group contained 10 mice. […] The pancreases were resected immediately after the mice were sacrificed and fixed in 4% (w/v) formaldehyde. The immunohistochemistry procedures were performed according to Y. Takeda et al.. The stained sections were observed by an inverted fluorescence microscopy (NIKON ECLIPSE TI-SR; Nikon Corporation, Tokyo, Japan), and digital images were collected using Nikon imaging system (NIKON DS-U3).

[1] = Blood GLP-1 in STZ-induced hyperglycemic mice; assay type: in vivo, mouse (male ICR); conditions: gavage daily; for GLP-1 concentration vs STZ control, significance / GLP-1 concentration in blood: day 57; for GLP-1 concentration in blood: peptide II 400 mg/kg (n = 7) or sitagliptin 4 mg/kg (n = 6), mouse ELISA, STZ control 9.85 ± 1.96, normal control 15.52 ± 3.17 pmol/L, mean ± SD; for Increase in GLP-1 concentration vs STZ control: peptide II 400 mg/kg or sitagliptin 4 mg/kg, after 57 days
Method: (§2) Male ICR mice at the age of four weeks were obtained from the Laboratory Animal Center of Zhejiang University (Hangzhou, China) and housed under a 12 h light/dark cycle with free access to food and water. The animal protocol was approved by the Committee on the Ethics of Animal Experiments of Zhejiang University (Permit Number: SYXK 2018-0001, 3 January 2018), and all experiments were performed in accordance with Zhejiang University Laboratory Animal Center Guidelines and the Regulations for Laboratory Animals Care and Usage. The mice were divided into four groups: non-STZ, STZ, STZ plus sitagliptin, and STZ plus peptide II. The mice were injected with STZ (50 mg/kg) dissolved into sodium citrate buffer (pH 4.5) for three successive days to induce hyperglycemia. Every group contained 10 mice. […] The levels of HbA1c were measured using an automatic analyzer MQ-2000pt produced by Medconn Medical Technology Co. (Shanghai, China). Plasma insulin, glucagon, GLP-1, and DPP-IV concentrations were measured using a mouse ELISA kit (Shanghai Lengton Bioscience Co., Ltd., Shanghai, China).

pancreatic beta-cells = test: Islet beta-cell (insulin-positive) area and function in STZ-treated mice, immunohistochemistry; assay type: in vivo, mouse (male ICR); conditions: gavage daily; for Beta-cell area: peptide II 400 mg/kg (n = 7) or sitagliptin 4 mg/kg (n = 6), day 57, insulin-positive area per islet area
Method: as §1

DPP-IV [2] = target: T1, DPP-IV (Homo sapiens, UniProt P27487); test: DPP-IV inhibitory assay (Gly-Pro p-nitroanilide); assay type: biochemical; conditions: n = 3; for DPP-IV inhibition, comparison among peptides I-IV: 62.5-1500 μg/mL
T1 construct: purchased Sigma-Aldrich D4943-1VL; host or cells: baculovirus-infected Sf9 insect cells
T1 sequence (P27487 whole entry): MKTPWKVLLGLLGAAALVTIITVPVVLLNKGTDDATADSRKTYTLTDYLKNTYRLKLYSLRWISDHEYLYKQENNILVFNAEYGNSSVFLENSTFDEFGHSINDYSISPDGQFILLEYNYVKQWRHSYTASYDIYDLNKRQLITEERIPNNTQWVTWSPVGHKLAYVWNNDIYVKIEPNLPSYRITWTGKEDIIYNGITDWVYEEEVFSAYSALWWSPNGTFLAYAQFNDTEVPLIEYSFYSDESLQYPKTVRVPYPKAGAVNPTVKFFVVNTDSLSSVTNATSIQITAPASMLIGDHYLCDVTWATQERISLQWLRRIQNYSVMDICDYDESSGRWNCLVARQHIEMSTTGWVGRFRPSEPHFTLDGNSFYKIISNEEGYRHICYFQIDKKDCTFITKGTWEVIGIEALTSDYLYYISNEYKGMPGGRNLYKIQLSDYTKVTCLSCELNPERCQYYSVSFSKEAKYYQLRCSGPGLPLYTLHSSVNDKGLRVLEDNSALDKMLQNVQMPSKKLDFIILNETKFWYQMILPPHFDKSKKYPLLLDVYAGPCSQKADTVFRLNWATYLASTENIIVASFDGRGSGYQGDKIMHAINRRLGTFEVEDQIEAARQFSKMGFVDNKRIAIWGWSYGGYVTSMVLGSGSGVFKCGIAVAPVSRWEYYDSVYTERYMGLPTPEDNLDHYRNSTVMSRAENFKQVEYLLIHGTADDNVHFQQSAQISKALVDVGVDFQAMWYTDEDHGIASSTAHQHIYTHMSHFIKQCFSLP
Excerpt: The enzyme, human recombinant DPP-IV (Lot: D4943-1VL), expressed in baculovirus-infected S/9 cells, the substrate, Gly-Pro p-nitroanilide (Gly-Pro pNA; Lot: G0513), and streptozotocin (STZ; Lot: V900890) were purchased from Sigma-Aldrich (St. Louis, MO, USA). […] Other reagents, such as Folin–Ciocalteu (Lot: 73104861), gallic acid (Lot: XW01499171), and Coomassie Blue R-250 (Lot: 71011381) were purchased from Sinopharm Chemical Reagent Co., Ltd. (Shanghai, China). Lapsang souchon (LS), a typical Chinese black tea, was obtained from a tea market in Hangzhou.
The DPP-IV inhibitory activities of the substance after ultrafiltration and the peptides identified (synthesized by Chinese Peptide Company, Hangzhou, China; purity of 96–97%) were evaluated. The DPP-IV inhibition assay was performed as described by Velarde-Salcedo et al., with slight modifications. The assay was performed in 96-well microplates, and 100 μL of enzyme (final concentration 1.9 U/L) was preincubated with the samples (the concentrated ultra-filtrate mentioned above and the synthesized peptide, with concentrations from 62.5–1500 μg/mL) at 37 °C for 15 min prior to the initiation of the reaction, by adding 50 μL of Gly-Pro p-nitroanilide (final concentration 0.29 mM). The final volume of the reaction system was 200 μL, and the reaction was conducted in 100 mM Tris-HCl buffer (pH 7.6). The absorbance was obtained at 405 nm in a microplate reader (Synergy H1, BioTek Instruments Inc., Winooski, VT, USA), after incubation at 37 °C for 1 h.

[3] = Plasma insulin in STZ-induced hyperglycemic mice; assay type: in vivo, mouse (male ICR); conditions: for Blood insulin level: peptide II 400 mg/kg (n = 7) or sitagliptin 4 mg/kg (n = 6), mouse ELISA, STZ control 9.79 ± 3.62 mU/L, mean ± SD
Method: as §2

DPP-IV [4] = target: T1, DPP-IV; test: Enzyme kinetics, Lineweaver-Burk plot, mode of inhibition; assay type: biochemical; conditions: peptide II 0, 1.02 and 2.04 mM; Gly-Pro pNA 0.29-4.64 mM; Tris-HCl pH 7.6, 37 °C, 60 min, 405 nm
Method: The initial rate of hydrolysis of the substrate Gly-Pro p-nitroanilide by DPP-IV was measured using substrate concentrations of 0.29, 0.58, 1.16, 2.32, and 4.64 mM (final assay concentrations) in the absence (100 mM Tris-HCl buffer, pH 7.6) and presence of different concentrations of the peptide II (1.02 and 2.04 mM, respectively). The substrate (50 μL), with or without an inhibitor (50 μL), was pre-incubated at 37 °C for 15 min, and the reaction was started by the addition of 100 μL of the DPP-IV enzyme (final concentration: 1.9 U/L). The absorbance of the released p-nitroanilide was monitored at 37 °C and 405 nm for 60 min using a microplate reader (Synergy H1, BioTek Instruments Inc.). Lineweaver–Burk plots of DPP-IV activity in the absence and presence of peptide II were created to show the modes of inhibition.

[5] = HbA1c in STZ-induced hyperglycemic mice; assay type: in vivo, mouse (male ICR); conditions: gavage daily, 57 days
Method: as §2

[6] = Plasma glucagon in STZ-induced hyperglycemic mice; assay type: in vivo, mouse (male ICR); conditions: peptide II 400 mg/kg or sitagliptin 4 mg/kg, gavage daily, day 57, vs STZ control
Method: as §2

## AGFAGDDAPR [Peptide II]
Pancreatic alpha-cells
  Alpha-cell area / proliferation: suppressed proliferation of pancreatic alpha-cells; also recorded: lower than that in the STZ control group, but not significantly
[1]
  GLP-1 concentration vs STZ control, significance: significantly higher than that in STZ control
  GLP-1 concentration in blood: 19.22 ± 6.79 pmol/L
  Increase in GLP-1 concentration vs STZ control: 9.3 pmol/L
Pancreatic beta-cells
  Beta-cell area: not obvious
Pancreatic beta-cells; peptide II 400 mg/kg, 57 days
  Beta-cell proliferation / function: improved function of pancreatic beta-cells; also recorded: only slight proliferation
DPP-IV [2]; 1000 μg/mL synthesized peptide, Tris-HCl pH 7.6, 37 °C, preincubation 15 min, 1 h, 405 nm
  DPP-IV enzyme activity inhibited: ~50%
DPP-IV [2]
  DPP-IV inhibition, comparison among peptides I-IV: much higher inhibitory activity at both low and high concentrations; also recorded: the greatest DPP-IV inhibitory activity
[3]; gavage daily, day 57
  Blood insulin level: 42.30 ± 12.64 mU/L
[3]; peptide II 400 mg/kg or sitagliptin 4 mg/kg, gavage daily, 57 days
  Increase of plasma insulin level vs STZ control: 4.3 fold
[3]; peptide II 400 mg/kg vs sitagliptin 4 mg/kg, day 57
  Insulin improvement compared with sitagliptin: improved the insulin levels more effectively than sitagliptin
DPP-IV [4]
  Mode of DPP-IV inhibition: competitive inhibitory mode
[5]; peptide II 400 mg/kg, n = 7
  HbA1c level vs STZ control: did not show a significant difference in HbA1c levels compared to STZ control animals
[6]
  Plasma glucagon levels: no amelioration of the glucagon levels

## QTDEYGNPPR [Peptide I]
DPP-IV [2]
  DPP-IV inhibition, comparison among peptides I-IV: lower than peptide IV, but higher than peptide III

## IDESLR [Peptide III]
DPP-IV [2]; 1500 μg/mL, compared among peptides I-IV
  DPP-IV inhibition: the lowest activity
DPP-IV [2]; concentration below 1000 μg/mL
  DPP-IV inhibition: almost no inhibition

## N[C@@H](CC(=O)N1CCn2c(nnc2C(F)(F)F)C1)Cc1cc(F)c(F)cc1F [sitagliptin, reference compound]
Pancreatic alpha-cells
  Alpha-cell area / proliferation: suppressed
Pancreatic alpha-cells; sitagliptin 4 mg/kg, day 57, glucagon-positive area per islet area, n = 6
  Decrease of alpha-cell area vs STZ-treated mice: 37.8%
[1]
  GLP-1 concentration vs STZ control, significance: without any significant difference compared with the STZ control
  GLP-1 concentration in blood: 12.57 ± 3.38 pmol/L
  Increase in GLP-1 concentration vs STZ control: 2.7 pmol/L
Pancreatic beta-cells
  Beta-cell area: not obvious
[3]; gavage daily, day 57
  Blood insulin level: 27.35 ± 5.65 mU/L
[5]; sitagliptin 4 mg/kg, n = 6, STZ control 7.30 ± 0.70%, mean ± SD
  HbA1c level: 5.98 ± 1.63%
[6]
  Plasma glucagon levels: no amelioration of the glucagon levels

## IQDKEGIPPDQQR [IV]
DPP-IV [2]
  DPP-IV inhibition, comparison among peptides I-IV: surpassed by peptide II with increasing concentration

Source: article PMC6359713, “A Novel Dipeptidyl Peptidase IV Inhibitory Tea Peptide Improves Pancreatic β-Cell Function and Reduces α-Cell Proliferation in Streptozotocin-Induced Diabetic Mice” (International Journal of Molecular Sciences, 2019)
